Data as given in publication PMC10584170, “Machine learning-based phenotypic imaging to characterise the targetable biology of Plasmodium falciparum male gametocytes for the development of transmission-blocking antimalarials” (PLOS Pathogens, 2023).

Legend:
[1] = system: P. falciparum male gametocytes; experiment: P. falciparum Dual Gamete Formation Assay (PfDGFA), male readout (exflagellation); assay type: cell-based, Plasmodium falciparum NF54; details: for Average inhibition male (%): average of replicates; for % inhibition male (individual replicates) R1: replicate R1; for % inhibition male (individual replicates) R3: replicate R3; for % inhibition male (individual replicates) R4: replicate R4; for Activity: hit = >50% inhibition in male or female readout in at least 3 replicates, 0 = no class assigned
Procedure: (§1) P. falciparum NF54 (originally isolated from an imported malaria case in the Netherlands in the 1980s; BEI Resources, cat. No. MRA-1000) strain asexual parasites were maintained between 0.3–5% parasitaemia by regular passage in complete culture medium (RPMI supplemented with 25 mM HEPES, 50 μg ml^−1 hypoxanthine, 4.8 g l^−1 NaHCO3, 2mM L-glutamine, 5% pooled type AB serum, 0.5% Albumax II (Gibco)) at 4% haematocrit in washed whole blood (National Blood and Transfusion Service or Centro de Transfusiones de la Comunidad de Madrid CTCM) under a 1% O2/3% CO2/96% N2 environment. Gametocytes were induced by seeding culture flasks at 2% parasitaemia/4% haematocrit and subjecting them to daily medium changes for 14 days whilst maintaining a temperature of 37°C at all times. On Day 14, the maturity of gametocytes was assessed by quantifying male gametogenesis (exflagellation). A 20 μl sample of gametocyte culture was mixed with equal volume of ookinete medium (complete culture medium supplemented with 0.1 μM xanthurenic acid) at room temperature and transferred to a haemocytometer. After 20 min at room temperature, exflagellation was accurately quantified as described in Delves et al. 2016 [17].
(§2) The Pf DGFA was performed as described in Delves et al. 2016 [17]. […] Plates were then incubated for 24 h at 37°C in a humidified box under a 1% O2/3% CO2/96% N2 gas mix. Gametogenesis was triggered by addition of 10 μl per well of ookinete medium + 0.27 μg ml^-1 Cy3-labelled anti-Pfs25 antibody. Plates were incubated on a metal block at 4°C for 4 min to ensure even cooling, then 28°C for a further 4 min. Exflagellation was recorded by capturing 10 frames over 1 s under brightfield illumination using a x4 objective with a 1.5x zoom (effectively x6) attached to an automated Nikon Ti fluorescence microscope. After recording exflagellation, plates were incubated for a further 24 h in the dark at 28°C to ensure maximal expression of Pfs25 by female gametes. The plates were then returned to the microscope and female gametes imaged at x6 using fluorescence microscopy.
(§3) Exflagellation centres and female gametes were quantified using custom image analysis pipelines developed within ICY Bioimage Analysis (https://icy.bioimageanalysis.org/).

[2] = system: P. falciparum female gametocytes; experiment: P. falciparum Dual Gamete Formation Assay (PfDGFA), female readout (Pfs25-positive female gametes); assay type: cell-based, Plasmodium falciparum NF54; details: for Average inhibition female (%): average of replicates; for % inhibition female (individual replicates) R1: replicate R1; for % inhibition female (individual replicates) R3: replicate R3; for % inhibition female (individual replicates) R4: replicate R4
Procedure: as §1, §2, §3

[3] = 2µM, 24h preincubation with gametocytes prior to induction of gametogenesis
[4] = 2µM, 24h preincubation, hits selected on >50% inhibition in the male readout across replicates
[5] = PfDGFA at 2µM, 24h preincubation
[6] = 2µM, 24h preincubation, hits selected on >50% inhibition in the female readout across replicates
[7] = PfDGFA at 2µM, 24h preincubation with gametocytes prior to induction of gametogenesis
[8] = 2µM, 24h preincubation, number of replicates with >50% inhibition in the male readout
[9] = 2µM, 24h preincubation, number of replicates with >50% inhibition in the female readout
[10] = 2µM, 24h preincubation with gametocytes

Compound | Average inhibition male (%) [1, 3] [%] | % inhibition male (individual replicates) R1 [1, 3] [%] | % inhibition male (individual replicates) R3 [1, 3] [%] | % inhibition male (individual replicates) R4 [1, 3] [%] | HitlevelM [1, 4] | Activity [1, 5] | Average inhibition female (%) [2, 3] [%] | % inhibition female (individual replicates) R1 [2, 3] [%] | % inhibition female (individual replicates) R3 [2, 3] [%] | % inhibition female (individual replicates) R4 [2, 3] [%] | HitlevelF [2, 6] | % inhibition male (individual replicates) R1 [1, 7] [%] | % inhibition male (individual replicates) R3 [1, 7] [%] | % inhibition male (individual replicates) R4 [1, 7] [%] | Average inhibition male (%) [1, 5] [%] | % inhibition female (individual replicates) R1 [2, 7] [%] | % inhibition female (individual replicates) R3 [2, 7] [%] | % inhibition female (individual replicates) R4 [2, 7] [%] | Average inhibition female (%) [2, 5] [%] | further results
Br.Oc1cccc(CCNCCCCCCNCCc2ccc(Cl)cc2)c1 [TCMDC-131285] | 17.5 | 13.8 | 6.4 | 28.9 | 0 | 0 | 14.3 | 12.4 | 15.9 | 17.3 | 0 | – | – | – | – | – | – | – | – | –
Cl.NC1=NC(CCc2ccccc2)N(c2ccc(Cl)cc2)C(N)=N1 (centres unmarked) [TCMDC-131290] | – | – | – | – | – | – | – | – | – | – | – | -21.3 | -9.1 | -39.8 | -16.9 | 1.0 | -2.9 | -19.8 | -10.7 | –
Br.CCCC1N=C(N)N=C(N)N1c1ccc(CC)cc1 (centres unmarked) [TCMDC-131300] | -2.2 | 7.1 | 2.2 | -35.1 | 0 | 0 | 5.7 | 16.1 | 10.4 | 12.0 | 0 | – | – | – | – | – | – | – | – | –
CNCCCCCCOc1ccc(CC(C)NCC(O)c2cccc(C(F)(F)F)c2)cc1.Cl (centres unmarked) [TCMDC-131523] | – | – | – | – | – | – | – | – | – | – | – | 2.8 | -13.3 | 4.2 | -0.8 | 10.7 | -17.9 | 1.1 | -0.7 | –
C[C@H](Cc1ccc(OCCNC[C@H](O)c2cccc(Cl)c2)cc1)NC[C@H](O)c1ccc(Cl)c(Cl)c1.O [TCMDC-131547] | 22.6 | 62.1 | 23.6 | 9.5 | 1 | 0 | 17.7 | 20.3 | 33.9 | 3.3 | 0 | – | – | – | – | – | – | – | – | –
C[C@H](Cc1ccc(S(=O)(=O)c2ccc(C[C@@H](C)NC[C@H](O)c3cccc(Cl)c3)cc2)cc1)NC[C@H](O)c1cccc(Cl)c1.Cl [TCMDC-131561] | 47.9 | 47.0 | 11.1 | 74.2 | – | – | 28.9 | 27.9 | 9.1 | 30.5 | – | – | – | – | – | – | – | – | – | HitlevelM [1, 8]: 2; HitlevelF [2, 9]: 0
CC1(C)N=C(NC(=O)c2ccc([N+](=O)[O-])cc2)N=C(N)N1OCc1ccc2ccccc2c1 [TCMDC-131580] | – | – | – | – | – | – | – | – | – | – | – | 21.0 | -18.0 | -29.1 | -7.9 | 12.5 | -19.7 | 0.76 | 3.4 | –
CC1(C)N=C(N)N=C(N)N1OCc1cc(Cl)c(CON2C(N)=NC(N)=NC2(C)C)cc1Cl [TCMDC-131624] | – | – | – | – | – | – | – | – | – | – | – | 2.1 | – | -25.6 | -4.5 | 0.3 | 11.6 | 5.2 | 2.9 | –
Cc1ccc(CON2C(N)=NC(N)=NC2(C)C)c(Cl)c1.Cc1ccc(CON2C(N)=NC(N)=NC2(C)C)cc1Cl [TCMDC-131625] | – | – | – | – | – | – | – | – | – | – | – | 26.3 | -30.0 | -18.5 | -5.6 | -4.8 | -23.0 | 21.6 | -0.55 | –
CC(=O)c1ccc(NC(=O)NNC(=O)c2ccc(CCN3CCC(c4nc(COCC(F)(F)F)c(-c5ccc(F)cc5)o4)CC3)cc2)cc1 [TCMDC-131905] | – | – | – | – | – | – | – | – | – | – | – | 1.3 | 7.6 | 18.2 | 9.5 | 5.8 | -31.0 | 36.9 | 3.6 | –
COc1cc2ncnc(Nc3ccc(OCc4ccccc4)c(OCc4ccccc4)c3)c2cc1OC.Cl [TCMDC-131922] | 5.7 | 10.5 | 8.7 | 6.9 | 0 | 0 | 10.3 | 5.3 | 31.5 | 4.3 | 0 | – | – | – | – | – | – | – | – | –
Nc1nc(N)c2c(ccc3c2cnn3Cc2cccnc2)n1 [TCMDC-131932] | 12.5 | 4.3 | 31.7 | 1.1 | – | – | 18.1 | 3.3 | 58.3 | 1.8 | – | – | – | – | – | – | – | – | – | HitlevelM [1, 8]: 0; HitlevelF [2, 9]: 1
COc1ccc2nc(Nc3nc4cnccc4[nH]3)sc2c1 [TCMDC-131950] | -15.4 | -6.4 | -26.4 | -8.5 | 0 | 0 | 7.4 | 12.1 | -4.5 | 3.8 | 0 | – | – | – | – | – | – | – | – | –
O=[N+]([O-])c1ccc(C=NO)nc1 [TCMDC-131967] | – | – | – | – | – | – | – | – | – | – | – | – | – | – | – | – | – | – | – | Average inhibition male (%) [1, 10]: 97.7%; % inhibition male (individual replicates) R1 [1, 10]: 97.9%; % inhibition male (individual replicates) R3 [1, 10]: 95.1%; % inhibition male (individual replicates) R4 [1, 10]: 101.6%; Average inhibition female (%) [2, 10]: 41.1%; % inhibition female (individual replicates) R1 [2, 10]: 34.5%; % inhibition female (individual replicates) R3 [2, 10]: 28.1%; % inhibition female (individual replicates) R4 [2, 10]: 43.8%
CS(=O)(=O)c1ccc(-n2nc(C(F)(F)F)cc2-c2ccc(C=NOCC(=O)O)o2)cc1 [TCMDC-132015] | – | – | – | – | – | – | – | – | – | – | – | 7.6 | -4.4 | -18.5 | -6.3 | 5.4 | -21.4 | 0.25 | -6.9 | –
CCc1c(CCNCCCCCCNCCc2ccc(Br)cc2)ccc(OC)c1OC.Cl [TCMDC-132045] | – | – | – | – | – | – | – | – | – | – | – | -2.0 | 7.0 | 22.9 | 10.8 | -8.2 | -48.0 | -18.3 | -21.6 | –
